Here are results for one molecule from article PMC12431657, “Discovery and mechanistic insights of dibenzoylmethane as a broad spectrum inhibitor of coronavirus” (PLOS Pathogens, 2025).

The subject of test [1] is HCoV-OC43. It counts as cell-based. Conditions: transient expression or RDV control, replicates.
For test [2], the system named is HCoV-OC43. The test is described as follows: Time-of-addition assay. It counts as cell-based. Conditions: replicates. The procedure:
To obtain further insight into the stage at which DBM inhibits the replication of HCoV-OC43 and other HCoVs, RD cells were incubated with compounds, including DBM, remdesivir (RDV), and chloroquine (CQ), at different stages of viral infection. Viral RNA from the supernatant was extracted and quantitatively analysed via qRT-PCR. […] For the viral binding assay, cells were cultured in the presence or absence of DBM at different concentrations for 1 hour before being infected with HCoV-OC43 at an MOI of 50, and then were placed on ice for 2 hours for the viral particles to bind to the membrane of the host cells, followed by washing with PBS. […] In addition to binding to receptors from host cells, the spike proteins of HCoV-OC43 could also trigger membrane fusion when HCoV-OC43 spike plasmid-transfected 293T cells were seeded together with RD cells as target cells, and the addition of DBM had no effect on this process (S5C Fig). To examine whether DBM inhibits viral internalisation, cells were inoculated with HCoV-OC43 for 1 hour on ice before being treated with either DBM or DMSO, and CQ was included to prevent endosomal acidification. Subsequently, HCoV-OC43 nucleocapsid proteins were immunostained with CoraLite Plus 488 to assess viral internalisation via confocal microscopy. […] To determine whether DBM influences viral release, we quantified viral RNA both intracellularly and in the supernatant.
To evaluate the effects of DBM on the life cycle of HCoV-229E and HCoV-OC43, fresh culture medium containing 0.6 μM DBM, 0.1 μM remdesivir (RDV), or 10 μM chloroquine (CQ) was supplemented with preseeded cells at different time points relative to infection (entry group: 0 to –2 hours; postinfection group: 2–12 hours; and full-time group: 0 to –12 hours). DMSO served as the control. At 24 hours postinfection, the number of intracellular virus RNA copies was quantified by qRT-PCR as previously described.

“And” between values parts separate entries of the source, which are not always exact repeats. Equal values may be shown once.

Turning to `CCC(CC)COC(=O)[C@H](C)N[P@](=O)(OC[C@H]1O[C@@](C#N)(c2ccc3c(N)ncnn23)[C@H](O)[C@@H]1O)Oc1ccccc1` [RDV], in the test on HCoV-OC43 [1], the “HCoV-OC43 inhibition (Fig5C)” value is 97.17 and 71.11 and 82.55. The “time-of-addition, viral inhibition” value in the test on HCoV-OC43 [2] (Entry) is 67.6 and 36.5 and 35.3; with HCoV-OC43 [2] (Full-Time) it was 99.4 and 98.9 and 99.6; in the test on HCoV-OC43 [2] (Post-Entry), 98.3 and 99.4 and 98.6.
